Active and inactive are the calls of the source. No rule for the calls is given here.
Tested on: CCRIS mutagenicity, Ames/micronucleus/aberration tests
Test: CCRIS mutagenicity studies
[1] = Test System: AMES SALMONELLA TYPHIMURIUM, Strain/Indicator: TA98, Metabolic Activation: NONE, Method: PREINCUBATION
[2] = Test System: AMES SALMONELLA TYPHIMURIUM, Strain/Indicator: TA98, Metabolic Activation: RAT, LIVER, S-9, AROCLOR 1254 (10%), Method: PREINCUBATION
[3] = Test System: AMES SALMONELLA TYPHIMURIUM, Strain/Indicator: TA100, Metabolic Activation: HAMSTER, LIVER, S-9, AROCLOR 1254 (10%), Method: PREINCUBATION
[4] = Test System: AMES SALMONELLA TYPHIMURIUM, Strain/Indicator: TA100, Metabolic Activation: NONE, Method: PREINCUBATION
[5] = Test System: AMES SALMONELLA TYPHIMURIUM, Strain/Indicator: TA100, Metabolic Activation: RAT, LIVER, S-9, AROCLOR 1254 (10%), Method: PREINCUBATION
[6] = Test System: AMES SALMONELLA TYPHIMURIUM, Strain/Indicator: TA1535, Metabolic Activation: HAMSTER, LIVER, S-9, AROCLOR 1254 (10%), Method: PREINCUBATION
[7] = Test System: AMES SALMONELLA TYPHIMURIUM, Strain/Indicator: TA1535, Metabolic Activation: NONE, Method: PREINCUBATION
[8] = Test System: AMES SALMONELLA TYPHIMURIUM, Strain/Indicator: TA1535, Metabolic Activation: RAT, LIVER, S-9, AROCLOR 1254 (10%), Method: PREINCUBATION
[9] = Test System: AMES SALMONELLA TYPHIMURIUM, Strain/Indicator: TA1537, Metabolic Activation: HAMSTER, LIVER, S-9, AROCLOR 1254 (10%), Method: PREINCUBATION
[10] = Test System: AMES SALMONELLA TYPHIMURIUM, Strain/Indicator: TA1537, Metabolic Activation: NONE, Method: PREINCUBATION
[11] = Test System: AMES SALMONELLA TYPHIMURIUM, Strain/Indicator: TA1537, Metabolic Activation: RAT, LIVER, S-9, AROCLOR 1254 (10%), Method: PREINCUBATION
[12] = Test System: AMES SALMONELLA TYPHIMURIUM, Strain/Indicator: TA98, Metabolic Activation: NONE, Method: STANDARD PLATE
[13] = Test System: AMES SALMONELLA TYPHIMURIUM, Strain/Indicator: TA100, Metabolic Activation: NONE, Method: STANDARD PLATE

Question: For `CCCC(C)(COC(N)=O)COC(=O)NC(C)C` (stereo not given), which mutagenic call (Test System: AMES SALMONELLA TYPHIMURIUM, Strain/Indicator: TA98, Metabolic Activation: HAMSTER, LIVER, S-9, AROCLOR 1254 (10%), Method: PREINCUBATION) is on record?
Answer: inactive; negative

Question: What about the mutagenic call [1] of the same molecule?
Answer: inactive; negative

Question: What about the mutagenic call [2] of the same molecule?
Answer: inactive; negative

Question: And the mutagenic call [3]?
Answer: inactive; negative

Question: And the mutagenic call [4]?
Answer: inactive; negative

Question: What about the mutagenic call [5] of the same molecule?
Answer: inactive; negative

Question: What about the mutagenic call [6] of the same molecule?
Answer: inactive; negative

Question: What about the mutagenic call [7] of the same molecule?
Answer: inactive; negative

Question: What about the mutagenic call [8] of the same molecule?
Answer: inactive; negative

Question: What about the mutagenic call [9] of the same molecule?
Answer: inactive; negative

Question: And the mutagenic call [10]?
Answer: inactive; negative

Question: What about the mutagenic call [11] of the same molecule?
Answer: inactive; negative

Question: Which results are given for `C=C(C)C1CCC(=C)C2C3=C(C[C@@H](C)C3=O)C(=O)C(C)=C[C@@H]12` (stereo not given in full)?
Answer: mutagenic call [12]: inactive; negative; mutagenic call (Test System: AMES SALMONELLA TYPHIMURIUM, Strain/Indicator: TA98, Method: STANDARD PLATE): inactive; negative; mutagenic call [13]: inactive; negative; mutagenic call (Test System: AMES SALMONELLA TYPHIMURIUM, Strain/Indicator: TA100, Method: STANDARD PLATE): inactive; negative

Question: For `CCCCOCN(C(=O)CCl)c1c(CC)cccc1CC`, which mutagenic call [13] is on record?
Answer: inactive; negative

Question: And the mutagenic call (Test System: AMES SALMONELLA TYPHIMURIUM, Strain/Indicator: TA100, Metabolic Activation: S-9 MIX, Method: STANDARD PLATE)?
Answer: active; positive

Question: And the mutagenic call (Test System: Ames Salmonella typhimurium, Strain/Indicator: TA97, Metabolic Activation: None, Method: Suspension)?
Answer: inactive; negative

Question: And the mutagenic call (Test System: Ames Salmonella typhimurium, Strain/Indicator: TA97, Metabolic Activation: Rat, Liver, S-9, Aroclor 1254 (10% v/v), Method: Preincubation)?
Answer: inactive; negative

Question: And the mutagenic call (Test System: Ames Salmonella typhimurium, Strain/Indicator: TA98, Metabolic Activation: None, Method: Preincubation)?
Answer: inactive; negative

Question: And the mutagenic call (Test System: Ames Salmonella typhimurium, Strain/Indicator: TA98, Metabolic Activation: Rat, Liver, S-9, Aroclor 1254 (10% v/v), Method: Suspension)?
Answer: inactive; negative

Question: And the mutagenic call (Test System: Ames Salmonella typhimurium, Strain/Indicator: TA100, Metabolic Activation: None, Method: Suspension)?
Answer: inactive; negative

Question: What about the mutagenic call (Test System: Ames Salmonella typhimurium, Strain/Indicator: TA100, Metabolic Activation: Rat, Liver, S-9, Aroclor 1254 (10% v/v), Method: Suspension) of the same molecule?
Answer: inactive; negative

Question: Which mutagenic call (End Point: IN VITRO CHROMOSOMAL ABERRATIONS, Test System: CHL/IU CELLS, Metabolic Activation: NONE) does the source give for `Nc1cccc(Cl)c1` here?
Answer: active; positive (structural changes)

Question: And the mutagenic call (End Point: IN VITRO MICRONUCLEUS, Test System: CHL/IU CELLS, Metabolic Activation: NONE)?
Answer: active; positive

Question: And the mutagenic call [1]?
Answer: inactive; negative

Question: What about the mutagenic call [2] of the same molecule?
Answer: inactive; negative

Question: What about the mutagenic call [3] of the same molecule?
Answer: inactive; negative

Question: And the mutagenic call [4]?
Answer: inactive; negative

Question: What about the mutagenic call [5] of the same molecule?
Answer: inactive; negative

Question: And the mutagenic call [6]?
Answer: inactive; negative

Question: And the mutagenic call [7]?
Answer: inactive; negative

Question: And the mutagenic call [8]?
Answer: inactive; negative

Question: What about the mutagenic call [9] of the same molecule?
Answer: inactive; negative

Question: And the mutagenic call [10]?
Answer: inactive; negative

Question: What about the mutagenic call [11] of the same molecule?
Answer: inactive; negative

Question: And the mutagenic call (Test System: CHINESE HAMSTER V-79, Strain/Indicator: V-79/8-AZAGUANINE, Metabolic Activation: NONE, Method: SUSPENSION/PLATE)?
Answer: active; positive

Question: And the mutagenic call (Test System: CHINESE HAMSTER V-79, Strain/Indicator: V-79/OUABAIN, Metabolic Activation: NONE, Method: SUSPENSION/PLATE)?
Answer: inactive; negative

Question: How did the mutagenic call (Test System: CHINESE HAMSTER OVARY, Strain/Indicator: V-79/6-THIOGUANINE, Metabolic Activation: RAT, LIVER, S-9, AROCLOR 1254, Method: FLASK ASSAY) turn out when `C1=Cc2c3ccccc3cc3c2c1cc1ccccc13` was run?
Answer: active; positive

Question: What about the mutagenic call (Test System: CHINESE HAMSTER V-79, Strain/Indicator: V-79/6-THIOGUANINE, Metabolic Activation: RAT, LIVER, S-9, AROCLOR 1254, Method: SUSPENSION/PLATE) of the same molecule?
Answer: active; positive

Question: For `ClCc1ccc(CCl)cc1`, which mutagenic call [12] is on record?
Answer: inactive; negative

Question: What does the source list for `CNC(=O)N(C)C(=O)NO`?
Answer: mutagenic call [12]: inactive; negative; mutagenic call [13]: inactive; negative

Question: What does the source list for `O=C(O)CN(CCN(CC(=O)O)Cc1ccccc1O)Cc1ccccc1O`?
Answer: mutagenic call (Test System: Mouse lymphoma, Strain/Indicator: L5178Y (tk+/tk-), Metabolic Activation: None, Method: Suspension/plate): active; positive; mutagenic call (Test System: Mouse lymphoma, Strain/Indicator: L5178Y (tk+/tk-), Metabolic Activation: Rat, Liver, S-9, Aroclor 1254, Method: Suspension/plate): active; positive

Question: `Cc1cn(/C=C/C=O)c(=O)[nH]c1=O` was tested. Which mutagenic call (Test System: AMES SALMONELLA TYPHIMURIUM, Strain/Indicator: HISD3052, Metabolic Activation: NONE, Method: STANDARD PLATE) did it give?
Answer: active; positive

Question: Which results are given for `CC(=O)ON(C(C)=O)c1ccc(/C=C\c2ccccc2)cc1`?
Answer: mutagenic call (Test System: UDS HUMAN CELLS, Strain/Indicator: THY INCORP (NON-S-PHASE), Metabolic Activation: NONE, Method: LIQUID SCINTILLATION COUNTING): active; positive; mutagenic call (Test System: UDS HUMAN FIBROBLASTS, Strain/Indicator: THY INCORP (NON-S-PHASE), Metabolic Activation: NONE, Method: AUTORADIOGRAPHY): active; positive

Question: For `N[C@@H](CS)C(=O)OC(=O)NCCCl`, which mutagenic call (Test System: AMES SALMONELLA TYPHIMURIUM, Strain/Indicator: TA1535, Metabolic Activation: NONE, Method: STANDARD PLATE) is on record?
Answer: active; positive

Question: `N[C@@H](CS/C(Cl)=C(\Cl)C(Cl)=C(Cl)Cl)C(=O)O` was tested. Which mutagenic call [4] did it give?
Answer: active; positive

Question: What about the mutagenic call [13] of the same molecule?
Answer: active; positive

Question: And the mutagenic call (Test System: AMES SALMONELLA TYPHIMURIUM, Strain/Indicator: TA100, Metabolic Activation: RAT, KIDNEY, S-9, AROCLOR 1254, Method: STANDARD PLATE)?
Answer: active; positive

Question: What about the mutagenic call (Test System: AMES SALMONELLA TYPHIMURIUM, Strain/Indicator: TA2638, Metabolic Activation: NONE, Method: PREINCUBATION) of the same molecule?
Answer: active; positive

Question: Which results are given for `O=[N+]([O-])c1ccccc1S(=O)(=O)O`?
Answer: mutagenic call [1]: inactive; negative; mutagenic call (Test System: AMES SALMONELLA TYPHIMURIUM, Strain/Indicator: TA98, Metabolic Activation: RAT, LIVER, S-9, KANECHLOR 500, Method: PREINCUBATION): inactive; negative; mutagenic call [4]: inactive; negative; mutagenic call (Test System: AMES SALMONELLA TYPHIMURIUM, Strain/Indicator: TA100, Metabolic Activation: RAT, LIVER, S-9, KANECHLOR 500, Method: PREINCUBATION): inactive; negative

Question: What does the source list for `CC(=O)N[C@@H](CSC(Cl)=C(Cl)Cl)C(=O)O`?
Answer: mutagenic call [4]: active; positive; mutagenic call (Test System: AMES SALMONELLA TYPHIMURIUM, Strain/Indicator: TA100, Metabolic Activation: RAT, KIDNEY, CYTOSOL, Method: PREINCUBATION): active; positive

Question: With `C=C(Br)C(C)=O` as the molecule, how does the mutagenic call [13] read?
Answer: active; positive

Question: With `C=COC(=O)C=C` as the molecule, how does the mutagenic call (Test System: AMES SALMONELLA TYPHIMURIUM, Strain/Indicator: TA102, Metabolic Activation: RAT, LIVER, S-9, PHENOBARBITAL AND 5,6-BENZOFLAVONE, Method: STANDARD PLATE) read?
Answer: inactive; negative

Question: What about the mutagenic call (Test System: AMES SALMONELLA TYPHIMURIUM, Strain/Indicator: TA2638, Metabolic Activation: RAT, LIVER, S-9, PHENOBARBITAL AND 5,6-BENZOFLAVONE, Method: STANDARD PLATE) of the same molecule?
Answer: inactive; negative

Question: What about the mutagenic call (Test System: E. COLI, Strain/Indicator: WP2 (PKM101), Metabolic Activation: RAT, LIVER, S-9, PHENOBARBITAL AND 5,6-BENZOFLAVONE, Method: STANDARD PLATE) of the same molecule?
Answer: inactive; negative

Question: And the mutagenic call (Test System: E. COLI, Strain/Indicator: WP2 UVRA (PKM101), Metabolic Activation: RAT, LIVER, S-9, PHENOBARBITAL AND 5,6-BENZOFLAVONE, Method: STANDARD PLATE)?
Answer: inactive; negative

Reference: PubChem BioAssay AID1259407 (Chemical Carcinogenesis Research Information System (CCRIS), 2018)
